Entries after “also recorded” stand apart in the source; their conditions may differ. Like-named read-outs stand apart in the source and are kept apart here.
Key:
[1] = cited from earlier work
[2] = test system: breast cancer resistance protein (BCRP); conditions: at clinically relevant concentrations; ref unpublished data; cited from earlier work
[3] = SSZ/GLPG3970 DDI study: plasma pharmacokinetics; assay type: in vivo, human; conditions: for AUC(0-t) / AUC(0-inf) / Cmax: human, plasma, oral, geometric LS mean (95% CI); for AUC(0-t): AUC0–t; for AUC(0-inf): AUC0–∞; for Cmax: C max
[4] = cited from earlier work; remark: listed apart in the source
[5] = MTX/GLPG3970 DDI study: plasma pharmacokinetics; assay type: in vivo, human; conditions: for Intra‐participant variability of AUC0–∞ and C max: MTX/GLPG3970 DDI study; for AUC(0-inf): AUC0–∞
[6] = Day 5 (GLPG3970 + SSZ) vs. day 1 (SSZ alone)
[7] = Day 9 (GLPG3970 2 h after SSZ) vs. day 1 (SSZ alone)
[8] = 1000 mg, SSZ 1,000 mg alone, Day 1 (n = 8)
[9] = GLPG3970 350 mg 2 h after SSZ 1,000 mg, Day 9 (n = 7)
[10] = GLPG3970 350 mg + SSZ 1,000 mg, Day 5 (n = 7)
[11] = Day 5 (GLPG3970 + MTX) vs. day 1 (MTX alone)
[12] = GLPG3970 350 mg + MTX 7.5 mg, Day 5 (n = 14)
[13] = MTX 7.5 mg alone, Day 1 (n = 15)

Compound: COc1cc(-c2cnc3cc(OCCN4CCOCC4)ccn23)cc2c1C(=O)N(CC(F)(F)F)CC2 [GLPG3970]
- Dose proportionality of exposure (AUC) ([1]; across the evaluated dose range): increased more than the dose proportionally
- Effect of food consumption on C max ([1]; preliminary work, ref not given): reduced
- Tolerability ([1]; single and multiple ascending doses, healthy volunteers): well tolerated
- Inhibition of BCRP in vitro [2]: strongly inhibits; also recorded: strong inhibition

Compound: Nc1ccc(S(=O)(=O)Nc2ccccn2)cc1 [SPD, sulfapyridine]
- AUC0–t, geometric LS mean ratio (90% CI) [3, 6]: 90 (81, 100) %
- AUC0–∞, geometric LS mean ratio (90% CI) [3, 6]: 90 (81, 101) %
- C max, geometric LS mean ratio (90% CI) [3, 6]: 90 (78, 102) %
- AUC0–t, geometric LS mean ratio (90% CI) [3, 7]: 89 (80, 99) %
- AUC0–∞, geometric LS mean ratio (90% CI) [3, 7]: 89 (80, 100) %
- C max, geometric LS mean ratio (90% CI) [3, 7]: 94 (82, 107) %
- Effect of GLPG3970 on SPD exposure ([3]; SSZ with GLPG3970 (simultaneously or 2 h before) vs. SSZ alone): similar; also recorded: no relevant effect
- AUC(0-t) [3, 8]: 119 µg·h/mL
- AUC(0-inf) [3, 8]: 125 µg·h/mL
- Cmax [3, 8]: 5680 ng/mL
- AUC(0-t) [3, 9]: 106 µg·h/mL
- AUC(0-t) [3, 10]: 107 µg·h/mL
- AUC(0-inf) [3, 9]: 112 µg·h/mL
- AUC(0-inf) [3, 10]: 113 µg·h/mL
- Cmax [3, 9]: 5310 ng/mL
- Cmax [3, 10]: 5090 ng/mL
- mean plasma t 1/2 ([4]; fast acetylation phenotype (NAT2)): 10.4 h
- mean plasma t 1/2 ([4]; slow acetylation phenotype (NAT2)): 14.8 h

Compound: CN(Cc1nc2c(N)nc(N)nc2[nH]c1=O)c1ccc(C(=O)N[C@@H](CCC(=O)O)C(=O)O)cc1 [7‐OH‐MTX, 7‐hydroxy‐methotrexate]
- AUC0–t, geometric LS mean ratio (90% CI) [5, 11]: 80 (69, 92) %
- C max, geometric LS mean ratio (90% CI) [5, 11]: 77 (72, 82) %
- AUC0–t, geometric LS mean (95% CI) [5, 12]: 392 (332, 463) ng.h/mL
- C max, geometric LS mean (95% CI) [5, 12]: 27.0 (23.9, 30.4) ng/mL
- AUC0–t, geometric LS mean (95% CI) [5, 13]: 490 (418, 576) ng.h/mL
- C max, geometric LS mean (95% CI) [5, 13]: 35.0 (31.1, 39.4) ng/mL
- Reduction in AUC0–t ([5]; MTX + GLPG3970 vs. MTX alone): 20%
- Reduction in C max ([5]; MTX + GLPG3970 vs. MTX alone): 23%
- Reduction in exposure ([5]; MTX + GLPG3970 vs. MTX alone): 20–23%
- Intra‐participant variability of AUC0–∞ and C max [5]: 10–22%

Compound: CN(Cc1cnc2nc(N)nc(N)c2n1)c1ccc(C(=O)N[C@@H](CCC(=O)O)C(=O)O)cc1 [MTX, methotrexate, reference compound]
- AUC0–t, geometric LS mean (95% CI) [5, 12]: 583 (523, 649) ng.h/mL
- Time after which plasma concentrations fell below the LLOQ ([5]; MTX 7.5 mg, LLOQ 5 ng/mL): 12 h
- Intra‐participant variability of AUC0–∞ and C max [5]: 10–22%
- AUC(0-t) ([5]; human, plasma, oral, 7.5 mg, AUC0–t, geometric LS mean (95% CI), MTX 7.5 mg alone, Day 1 (n = 15)): 0.627 µg·h/mL
- AUC(0-inf) ([5]; human, plasma, oral, 7.5 mg, geometric LS mean (95% CI), MTX 7.5 mg alone, Day 1 (n = 13)): 0.677 µg·h/mL
- AUC(0-inf) ([5]; human, plasma, oral, geometric LS mean (95% CI), GLPG3970 350 mg + MTX 7.5 mg, Day 5 (n = 12)): 0.614 µg·h/mL
- Cmax ([5]; human, plasma, oral, C max, geometric LS mean (95% CI), GLPG3970 350 mg + MTX 7.5 mg, Day 5 (n = 14)): 193 ng/mL
- fraction of dose metabolized in the liver [4]: Approximately 10%
- mean t 1/2 [4]: 3 to 10 h
- bioavailability ([4]; oral dosing): ~ 60%
- excreted unchanged in urine ([4]; within 24 hours): 80–90%

Compound: O=C(O)c1cc(/N=N/c2ccc(S(=O)(=O)Nc3ccccn3)cc2)ccc1O [SSZ, sulfasalazine, reference compound]
- AUC(0-t) [3, 8]: 59.3 µg·h/mL
- AUC(0-inf) [3, 8]: 59.8 µg·h/mL
- Cmax [3, 8]: 7270 ng/mL
- AUC(0-t) [3, 9]: 109 µg·h/mL
- AUC(0-t) [3, 10]: 108 µg·h/mL
- AUC(0-inf) [3, 9]: 110 µg·h/mL
- AUC(0-inf) [3, 10]: 109 µg·h/mL
- Cmax [3, 9]: 13100 ng/mL
- Cmax [3, 10]: 12000 ng/mL
- Time at which systemic concentrations are detectable post‐dosing ([4]; oral, literature, ref not given): ~ 1.5 hours
- t max ([4]; post‐dosing, oral SSZ, literature, ref not given): 3 to 12 h

— publication PMC11739741 (Clinical Pharmacology and Therapeutics, 2024)
